For 37 molecules, IC50 and inhibition in vivo results are on record in patent publication US5559144A, “Furyl and thienyl alkynyl-N-hydroxy urea derivatives” (Abbott Laboratories, priority 1995, dated 1996).

The structures appear in SMILES notation.

Test [1] has as its target T1, 5-Lipoxygenase from RBL-1 20,000xg Supernatant (Rattus norvegicus, UniProt P12527).
T1 construct: 20,000 xg supernatant from 1.5 million homogenized RBL-1 cells; endogenous in cells; host or cells: RBL-1 cells (20,000 xg supernatant of homogenate)
T1 sequence (P12527 1-673): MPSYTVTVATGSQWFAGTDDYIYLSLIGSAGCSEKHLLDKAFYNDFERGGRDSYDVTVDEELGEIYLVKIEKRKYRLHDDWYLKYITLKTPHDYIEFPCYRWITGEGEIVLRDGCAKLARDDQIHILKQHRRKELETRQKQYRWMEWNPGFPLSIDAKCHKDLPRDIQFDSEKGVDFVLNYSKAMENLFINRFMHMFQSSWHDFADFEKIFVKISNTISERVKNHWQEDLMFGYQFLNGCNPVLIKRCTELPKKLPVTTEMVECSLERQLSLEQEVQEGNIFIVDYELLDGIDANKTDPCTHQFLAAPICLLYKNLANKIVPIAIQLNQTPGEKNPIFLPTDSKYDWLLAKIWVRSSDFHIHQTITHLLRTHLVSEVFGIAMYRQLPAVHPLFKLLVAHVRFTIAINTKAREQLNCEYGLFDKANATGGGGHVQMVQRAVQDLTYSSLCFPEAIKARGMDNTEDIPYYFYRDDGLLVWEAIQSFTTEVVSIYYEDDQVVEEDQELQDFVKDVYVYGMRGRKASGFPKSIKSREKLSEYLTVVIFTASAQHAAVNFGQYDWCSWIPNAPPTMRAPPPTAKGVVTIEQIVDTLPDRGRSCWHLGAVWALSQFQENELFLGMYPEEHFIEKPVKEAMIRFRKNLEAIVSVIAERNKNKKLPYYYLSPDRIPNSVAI
The test is described as follows: 5-lipoxygenase inhibitory activity, 20,000 xg supernatant from homogenized RBL-1 cells. The class given is biochemical. To be noted: radiolabeled arachidonic acid, triplicate. On the procedure: Assays to determine 5-lipoxygenase inhibitory activity of representative compounds of the present invention were performed in […] incubations containing the 20,000 xg supernatant from 1.5 million homogenized RBL-1 cells and various concentrations of the test compound. Reactions were initiated by addition of radiolabeled arachidonic acid and terminated by acidification and ether extraction. Reaction products were separated from nonconverted substrate by thin layer chromatography and measured by liquid scintillation spectroscopy. All incubations are performed in triplicate. Inhibition of 5-lipoxygenase activity was calculated as the ratio of the amount of product formed in the presence and absence of inhibitor. […] (Dyer, R. D.; Haviv, F.; Hanel, A. M.; Bornemier, D. A.; Carter, G. W. Fed. Proc., Fed. Am. Soc. Exp. Biol. 1984, 43, 1462A).

Test [2] has as its system Leukotrienes (biosynthesis). The test is described as follows: Inhibition of leukotriene biosynthesis in vivo after oral administration, rat peritoneal anaphylaxis model. The settings on record: 1 h, gavage one hour prior to antigen challenge, read-out: Percent Inhibition of Leukotrienes; for inhibition in vivo at 30 µmol/kg: Oral Dose at 30 μmol/kg; for inhibition in vivo at 100 µmol/kg: Oral Dose at 100 μmol/kg; for inhibition in vivo at 200 µmol/kg: Oral Dose at 200 μmol/kg. On the procedure: Inhibition of the biosynthesis of leuktrienes in vivo after oral administration of compound was determined using a rat peritoneal anaphylaxis model in a similar manner as that described by Young and coworkers (Young, P. R.; Dyer, R. D.; Carter, G. W. Fed. Proc., Fed. Am. Soc. Exp. Biol. 1985, 44, 1185). In this model rats were injected intraperitoneally (ip) with rabbit antibody to bovine serum albumin (BSA) and three hours later injected ip with BSA to induce an antgen-antibody response. Rats were sacrificed 15 minutes after this challenge and the peritoneal fluids were collected and analyzed for leukotriene levels. Test compounds were administered by gavage one hour prior to the antigen challenge. Percent inhibition values were determined by comparing the treatment group to the mean of the control group.

For `CC(C#Cc1cc2ccccc2s1)N(O)C(N)=O` (stereo not drawn) [Example 16, N-Hydroxy-N-[4-(2-benzo[b]thienyl)-3-butyn-2-yl]urea], the IC50 in test [1] came to 100 nM.
In test [1], `CC(C#Cc1ccc(Oc2ccccc2)o1)N(O)C(N)=O` (stereo not drawn) [Example 58, N-hydroxy-N-[4-(5-phenoxy-2-furyl)-3-butyn-2-yl]urea] displayed an IC50 of 200 nM. Also, in test [2], the inhibition in vivo at 30 µmol/kg turned out to be 83%.
`CCc1ccc(C#CC(C)N(O)C(N)=O)cc1` (stereo not drawn) [Example 24, N-Hydroxy-N-[4-(4-ethylphenyl)-3-butyn-2-yl]urea] displayed an IC50 in test [1] of 300 nM. In other words, the sub-micromolar range.
For `CC(C#Cc1cccc(Oc2ccncc2)c1)N(O)C(N)=O` (stereo not drawn) [Example 46, N-Hydroxy-N-[4-[3-(4-pyridinyloxy)phenyl]-3-butyn-2-yl]urea], the 50% inhibitory concentration (IC50) in test [1] stood at 1200 nM. Also, the inhibition in vivo at 100 µmol/kg in test [2] is 98%.
In test [1], `CC(C#Cc1ccc(Oc2ccccc2)cc1)N(O)C(N)=O` (stereo not drawn) [Example 12, N-Hydroxy-N[4-(4-phenoxyphenyl)-3-butyn-2-yl]urea] returned an IC50 of 300 nM. In other words, the sub-micromolar range.
Take `CNC(=O)N(O)C(C)C#Cc1ccc(C(C)C)cc1` (stereo not drawn) [Example 23, N-Hydroxy-N-[4-[4-(1-methylethyl)phenyl]-3-butyn-2-yl]-N'-methylurea]: in test [1], inhibition was half-maximal at 500 nM (IC50).
Consider `Cc1ccc(C#CC(C)N(O)C(N)=O)s1` (stereo not drawn) [Example 14, N-Hydroxy-N-[4-(5,methylthien-2-yl)-3-butyn-2-y]urea], for which, in test [1], 1700 nM corresponded to half-maximal inhibition (IC50).
Regarding `CC(C#CCOc1ccccc1)N(O)C(N)=O` (stereo not drawn) [Example 10, N-Hydroxy-N-(5-phenoxy-3-pentyn-2-yl)urea], the inhibition in vivo at 200 µmol/kg in test [2] amounted to 99%.
Regarding `COc1cccc(Oc2cccc(C#CC(C)N(O)C(N)=O)c2)n1` (stereo not drawn) [Example 65, N-Hydroxy-N-[4-[3-(6-methoxypyridin-2-yloxy)phenyl]-3-butyn-2-yl]urea], inhibition in test [1] was half-maximal at 200 nM (IC50). In other words, the sub-micromolar range.
In turn, `Cc1ccc(C#CC(C)N(O)C(N)=O)cc1` (stereo not drawn) [Example 28, N-Hydroxy-N-[4-(4-methylphenyl)-3-butyn-2-yl]urea] had a half-inhibitory concentration (IC50) in test [1] of 1400 nM.
In turn, `Cc1ccc(Oc2cccc(C#CCN(O)C(N)=O)c2)cc1` [Example 36, N-Hydroxy-N-[3-[3-(4-methylphenoxy)phenyl]-2-propynyl]urea] gave an IC50 in test [1] of 600 nM. In addition, the inhibition in vivo at 100 µmol/kg in test [2] is 99%.
The matching figures for `NC(=O)N(O)CC#Cc1cccc(Oc2ccccc2)c1` [Example 33, N-Hydroxy-N-[3-(3-phenoxyphenyl)-2-propynyl]urea]: 500 nM and 99%.
Take `CC(C#Cc1cccc(OCc2ccccc2)c1)N(O)C(N)=O` (stereo not drawn) [Example 6, N-Hydroxy-N-[4-(3-benzyloxyphenyl)-3-butyn-2-yl]urea]: inhibition in test [1] was half-maximal at 200 nM (IC50).
`NC(=O)N(O)CC#Cc1ccccc1` [Example 32, N-Hydroxy-N,(3,phenyl-2-propynyl)urea]: the IC50 in test [1] is 5900 nM. Besides, in test [2], the inhibition in vivo at 100 µmol/kg came to 97%.
With `COc1ccc2cc(C#CC(C)N(O)C(N)=O)ccc2c1` (stereo not drawn) [Example 2, N-Hydroxy-N-[4-(6-methoxynaphth-2-yl)-3-butyn-2-yl]urea], the inhibition in vivo at 200 µmol/kg in test [2] amounted to 66%.
In test [1], `COc1ccc(C#CC(C)N(O)C(N)=O)cc1` (stereo not drawn) [Example 37, N-Hydroxy-N-[4-(4-methoxyphenyl)-3-butyn-2-yl]urea] came in with an IC50 of 2000 nM. This lies in the single-digit micromolar range.
Still for that read-out and setting: under `CNC(=O)N(O)C(C)C#Cc1ccc(C)cc1` (stereo not drawn) [Example 29, N-Hydroxy-N-[4-(4-methylphenyl)-3-butyn-2-yl]-N'-methylurea] stands 800 nM.
As for `CNC(=O)N(O)C(C)C#Cc1ccc(Br)cc1` (stereo not drawn) [Example 18, N-Hydroxy-N-[4-(4-bromophenyl)-3-butyn-2-yl]-N'-methylurea], the IC50 in test [1] turned out to be 500 nM.
`NC(=O)N(O)CC#Cc1cccc(Oc2cccnc2)c1` [Example 54, N-Hydroxy-N-[3-[3-(3-pyridinyloxy)phenyl]-2-propyn-1-yl]urea]: the inhibition in vivo at 30 µmol/kg in test [2] stood at 78%.
`CNC(=O)N(O)C(C)C#Cc1cccc(Oc2ccccn2)c1` (stereo not drawn) [Example 56, N-Hydroxy-N-[4-[3-(2-pyridinyloxy)phenyl]-3-butyn-2-yl]-N'-methylurea] returned a half-inhibitory concentration (IC50) in test [1] of 300 nM. In other words, the sub-micromolar range.
Turning to `NC(=O)N(O)CC#CCOc1ccccc1` [Example 41, N-Hydroxy-N-(4-phenoxy-2-butynyl)urea], the half-maximal inhibitory concentration (IC50) in test [1] was found to be 3500 nM.
For the molecule `CC(C#Cc1cccc(Oc2ccccc2)c1)N(O)C(N)=O` (stereo not drawn) [Example 3, N-Hydroxy-N-[4-(3-phenoxyphenyl)-3-butyn-2-yl]urea], 100 nM corresponded to half-maximal inhibition in test [1] (IC50).
For `Cc1ccc(Oc2cccc(C#CC(C)N(O)C(N)=O)c2)cc1` (stereo not drawn) [Example 35, N-Hydroxy-N-[4-[3-(4-methylphenoxy)phenyl]-3-butyn-2-yl]urea], the IC50 in test [1] is 400 nM.
Turning to `CC(C#CCCc1cccc(Oc2ccccn2)c1)N(O)C(N)=O` (stereo not drawn) [Example 55, N-Hydroxy-N-[6-[3-(2-pyridinyloxy)phenyl]-3-hexyn-2-yl,1]-urea], in test [1], the IC50 was 900 nM. This IC50 is about 2.2-fold higher than that of the molecule before.
As for `NC(=O)N(O)CC#CCOc1cccc(Oc2cccnc2)c1` [Example 49], the inhibition in vivo at 100 µmol/kg in test [2] came out at 98%.
`CC(C#Cc1ccc(OCc2ccccc2)cc1)N(O)C(N)=O` (stereo not drawn) [Example 7, N-Hydroxy-N-[4-(4-benzyloxyphenyl)-3-butyn-2-yl]urea]: the IC50 in test [1] turned out to be 130 nM.
Turning to `CNC(=O)N(O)C(C)C#CCCc1ccccc1` (stereo not drawn) [Example 27, N-Hydroxy-N-(6-phenyl-3-hexyn-2-yl)-N'-methylurea], the IC50 in test [1] came to 700 nM.
Take `CCCCc1ccc(C#CC(C)N(O)C(N)=O)s1` (stereo not drawn) [Example 13, N-Hydroxy-N-[4-(5-butylthien-2-yl)-3-butyn-2-yl]urea]: inhibition in test [1] was half-maximal at 300 nM (IC50).
In the case of `NC(=O)N(O)CC#Cc1ccc(Oc2ccc(F)cc2)o1` [Example 60, N-hydroxy-N-{3-[5-(4-fluorophenoxy)-2-furyl]-2-propynyl}urea], in test [2], the inhibition in vivo at 30 µmol/kg was 70%.
In test [1], `CC(C#CC1=CCCCC1)N(O)C(N)=O` (stereo not drawn) [Example 9, N-Hydroxy-N-(4-cyclohexen-1-yl-3butyn-2-yl)urea] came in with a concentration for half-maximal inhibition (IC50) of 1200 nM. This counts as single-digit micromolar.
For `CC(C#CCN(C)Cc1ccccc1)N(O)C(N)=O` (stereo not drawn) [Example 5, N-Hydroxy-N-[5-[(N-methyl-N-benzyl)amino]-3-pentyn,2-yl]urea], the IC50 in test [1] was determined as 3600 nM.
In the case of `NC(=O)N(O)CC#Cc1cccc(Oc2ccccn2)c1` [Example 63, N-Hydoxy-N-[3-[3-(2-pyridinyloxy)phenyl]-2-propyn-1-yl]urea], the inhibition in vivo at 30 µmol/kg in test [2] stood at 85%.
`CC(C#CCOc1cccc(Oc2ccccc2)c1)N(O)C(N)=O` (stereo not drawn) [Example 45, N-Hydroxy-N-[5-(3-phenoxyphenoxy)-3-pentyn-2-yl]urea]: in test [1], the IC50 stood at 200 nM.
`COc1ccc(Oc2cccc(C#CC(C)N(O)C(N)=O)c2)cc1` (stereo not drawn) [Example 40, N-Hydroxy-N-[4-[3-(4-methoxyphenoxy)phenyl]-3-butyn-2-yl]urea] had an IC50 in test [1] of 500 nM.
On to `CNC(=O)N(O)C(C)C#Cc1ccccc1` (stereo not drawn) [Example 15, N-Hydroxy-N-(4-phenyl-3-butyn-2-yl)-N'-methylurea], for which the midpoint of inhibition in test [1], the IC50, lay at 3300 nM.
In test [1], `CC(C#Cc1ccco1)N(O)C(N)=O` (stereo not drawn) [Example 31, N-Hydroxy-N-[4-(2-furyl)-3-butyn-2-yl]urea] had an IC50 of 6200 nM.
For `NC(=O)N(O)CC#CCOc1cccc(Oc2ccccc2)c1` [Example 38, N-Hydroxy-N-[4-(3-phenoxyphenoxy)-2-butynyl]urea], the inhibition in vivo at 100 µmol/kg in test [2] was 100%.

The term IC50 denotes the point on the concentration scale where inhibition reaches its midpoint. Lower therefore signals inhibition by little substance.
